What was measured:
activated neutrophils = test: CCK-8 cytotoxicity; type: cell-based, mouse; details: CCK-8, 24 h, different dosages
Description: The supernatant was discarded, and the red blood cells were lysed with RBC lysate. The neutrophils were then washed with PBS again, and the supernatant was discarded. The cells were resuspended in culture medium and used for further experiments. […]
Briefly, FTP-NPs were prepared by self-assembly of peptidic nanomaterials and adjusted to various concentrations (0, 50, 100, 200, 400, 800, 1000 μg/mL). […]
10 minutes to remove unbound particles, and the supernatant was collected. […]
In vitro cytotoxicity assay
The CCK-8 assay was used to assess the cell viability of Hepa1-6/luc, resting neutrophils, and activated neutrophils. Following the seeding of 1*10^4 cells per well on a 96-well plate, the cells were subjected to different dosages of FTP-NPs and NFTP-NPs (medium: DMSO = 99:1 v/v). After 24 hours, the cells were incubated for two hours with 10 µL of CCK-8 solution. Finally, a microplate reader (Tecan Infinite M200, Switzerland) was used to measure cell viability based on the absorbance values.
Targeting the capability of NEBP
To evaluate the targeting capability of NE-binding peptide (NEBP), the harvested resting neutrophils and […]

[1] = target: T1, NE of activated neutrophils (Mus musculus, UniProt Q3UP87); test: Quantitative analysis of NE activity (NETosis Assay Kit); type: cell-based; details: activated neutrophils (PMA), 4 h, NPs 0-200 µM; FTP-NPs result stated at 50 µM
T1 construct: endogenous in cells
T1 sequence (Q3UP87 27-265): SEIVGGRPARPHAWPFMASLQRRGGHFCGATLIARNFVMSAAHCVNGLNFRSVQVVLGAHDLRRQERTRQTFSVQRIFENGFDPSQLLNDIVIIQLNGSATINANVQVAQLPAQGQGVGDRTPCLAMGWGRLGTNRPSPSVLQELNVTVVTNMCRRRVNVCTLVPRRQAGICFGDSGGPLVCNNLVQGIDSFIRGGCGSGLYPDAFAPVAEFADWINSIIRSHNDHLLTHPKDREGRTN
Description: Submitted to Advanced Science
Neutrophil Elastase Activity Assay
To evaluate the distribution of active NE on the surface and inside of neutrophils, we used a kit (AkrivisBio’s Neutrophil Elastase Activity Assay, MA-0156), seeded neutrophils in confocal microscopy dishes, and then treated them with NFTP-NPs (50 µM, medium: DMSO = 99:1, v/v), FTP-NPs (50 µM, medium: DMSO = 99:1, v/v), PMA+NFTP-NPs (50 µM, medium: DMSO = 99:1, v/v), and PMA+FTP-NPs (50 µM, medium: DMSO = 99:1, v/v) at 37°C. Because the Neutrophil elastase in the kit cleaves a concrete fluorogenic substrate which releases AFC, providing intense fluorescence, 50 μl of MeOSucc-AAPV-AFC mix (Assay Buffer: MeOSucc-AAPV-AFC = 48:2) was added at 4 h, and after incubation for 1 h, the samples were examined by CLSM (LSM980, Zeiss, Germany).
Quantitative analysis of NE activity […]
DMSO = 99:1, v/v) for 4 h to obtain the solution.35,36 Quantitative analysis was carried out by a NETosis Assay Kit (Cayman Chemical, USA).
Quantitative induction analysis of NETs in vitro […]
According to the manufacturer's instructions, MPO -DNA levels in cultured supernatant were analyzed by an ELISA kit (MEIMIAN, China).38 Briefly, samples were added to each well and incubated with anti -MPO and anti-DNA antibodies for 2 h at room temperature. […] The OD value w as then measured by a microplate

Hepa1-6 cells = test: Transwell migration and Matrigel invasion assay; type: cell-based, mouse
Description: Cell migration and invasion assay […]
Cell migration was monitored during the overnight culture of the cells. Hepa1-6/luc cells (5×10^5cells/well) were placed in the upper chamber of an 8µm transwell system and incubated in serum-free DMEM, while various treated media with 20% FBS were added to the lower chamber of 24-well plates. After incubation for 48 h, the transmembrane cells were washed, fixed with 4% paraformaldehyde, stained with crystal violet, and observed under a microscope (Axiovert 200, Zeiss, Germany). All the experiments were performed thrice. The Transwell invasion assay was performed using a similar procedure. Hepa1-6/luc cells (1×10^6cells/well) were seeded in the upper chamber of an 8µm transwell system coated with Matrigel (356231, Corning, New York, USA) and incubated in serum-free DMEM. The remaining operations were performed according to the steps of the migration assay. All the experiments were performed thrice.
Matrigel tube formation assay
Murine C166 endothelial cells (3×10^4cells/well) were placed on 96-well plates coated with Matrigel (356231, Corning, New York, USA) and incubated with various treatments. […]
In vitro permeability assays and trans-endothelial invasion assays […]

Substance | survival rate (activated neutrophils) | activity of NE [1] | number of invasive cells (Hepa1-6 cells; Matrigel-coated transwell, versus Control and NFTP-NPs groups) | number of migrating cells (Hepa1-6 cells; transwell, 48 h, versus other control groups)
PpIX-GFFVLK-EAIPMSIPPEVK [FTP-NPs] | over 95% | almost disappeared | significantly lower | significantly reduced
PpIX-GGGAAK-EAIPMSIPPEVK [NFTP-NPs, nanoparticles of the non-fibrillar transformable control peptide NFTP] | – | no significant effect | – | –

From PMC12767106, “In Situ Assembly of Transformable Monopeptide on Activated Neutrophils Attenuates NETs‐Induced Hepatocellular Carcinoma Metastasis by Disrupting NE Nuclear Translocation” (Advanced Science, 2025)
